Measurements taken from patent US20120202801A1, “METHODS FOR TREATING BREAST CANCER” (priority 2009, published 2012).

system: hypoxia-inducible endogenous VEGF expression; assay: Hypoxia-inducible endogenous VEGF expression ELISA in HeLa cells, dose-response (EC50, Table 3); details: Homo sapiens, read-out: ELISA EC50 μM

SMILES	EC50 [µM]
COCCCNCCCCCCOc1ccc(C2c3[nH]c4ccc(Cl)cc4c3CCN2C(=O)Oc2ccc(F)cc2)cc1 (stereo not shown) [Compound 775]	< 0.008
CN(C)CCCOc1ccc(C2c3[nH]c4ccc(Cl)cc4c3CCN2C(=O)Oc2ccc(Cl)cc2)cc1 (stereo not shown) [Compound 479]	0.04 to 0.2
O=C(Oc1ccc(Cl)cc1)N1CCc2c([nH]c3ccc(Cl)cc23)C1c1ccc(OCCCCCCN2CCOCC2)cc1 (stereo not shown) [Compound 786]	< 0.008
CC(=O)N1CCN(CCCOc2ccc(C3c4[nH]c5ccc(Cl)cc5c4CCN3C(=O)Oc3ccc(F)cc3)cc2)CC1 (stereo not shown) [Compound 988]	< 0.008
Cc1ccc(OC(=O)N2CCc3c([nH]c4ccc(Cl)cc34)[C@@H]2c2ccc(OCCC(O)CN3CCOCC3)cc2)cc1 (stereo partly shown) [Compound 1302]	0.04 to 0.2
O=C(Oc1ccc(Cl)cc1)N1CCc2c([nH]c3ccc(Cl)cc23)C1c1ccc(OCC(O)CN2CCCC2)cc1 (stereo not shown) [Compound 462]	0.008 to 0.04
CNCC(O)COc1ccc(C2c3[nH]c4ccc(Cl)cc4c3CCN2C(=O)Oc2ccc(Cl)cc2)cc1 (stereo not shown) [Compound 850]	0.04 to 0.2
O=C(Oc1ccc(F)cc1)N1CCc2c([nH]c3ccc(Cl)cc23)C1c1ccc(OCC(O)CN2CCSCC2)cc1 (stereo not shown) [Compound 925]	< 0.008
CN1CCN(CCCCOc2ccc(C3c4[nH]c5ccc(Cl)cc5c4CCN3C(=O)Oc3ccc(Cl)cc3)cc2)CC1 (stereo not shown) [Compound 704]	0.04 to 0.2
Cc1ccc(OC(=O)N2CCc3c([nH]c4ccc(Cl)cc34)C2c2ccc(OCCCN(C)C)cc2)cc1 (stereo not shown) [Compound 502]	0.04 to 0.2
CCN(CC)CCCOc1ccc(C2c3[nH]c4ccc(Cl)cc4c3CCN2C(=O)Oc2ccc(Cl)cc2)cc1 (stereo not shown) [Compound 946]	0.008 to 0.04
O=C(Oc1ccc(F)cc1)N1CCc2c([nH]c3ccc(Cl)cc23)C1c1ccc(OCCCCN2CCCC2)cc1 (stereo not shown) [Compound 736]	< 0.008
CN(C)CC(=O)Nc1ccc(C2c3[nH]c4ccc(Cl)cc4c3CCN2C(=O)Oc2ccc(Cl)cc2)cc1 (stereo not shown) [Compound 491]	0.04 to 0.2
COCCCNCCCCOc1ccc(C2c3[nH]c4ccc(Cl)cc4c3CCN2C(=O)Oc2ccc(F)cc2)cc1 (stereo not shown) [Compound 737]	0.008 to 0.04
O=C(Oc1ccc(Cl)cc1)N1CCc2c([nH]c3ccc(Cl)cc23)C1c1ccc(OCCCN2CCSCC2)cc1 (stereo not shown) [Compound 933]	< 0.008
CC(C)NCCCCOc1ccc(C2c3[nH]c4ccc(Cl)cc4c3CCN2C(=O)Oc2ccc(Cl)cc2)cc1 (stereo not shown) [Compound 700]	0.008 to 0.04
COCCCNCCCCCCOc1ccc(C2c3[nH]c4ccc(Cl)cc4c3CCN2C(=O)Oc2ccc(Cl)cc2)cc1 (stereo not shown) [Compound 785]	< 0.008
O=C(Oc1ccc(F)cc1)N1CCc2c([nH]c3ccc(Cl)cc23)C1c1ccc(OCCCCCCN2CCCCC2)cc1 (stereo not shown) [Compound 777]	< 0.008
O=C(Oc1ccc(F)cc1)N1CCc2c([nH]c3ccc(Cl)cc23)C1c1ccc(OCCCN2CCSCC2)cc1 (stereo not shown) [Compound 991]	0.04 to 0.2
O=C(Oc1ccc(F)cc1)N1CCc2c([nH]c3ccc(Cl)cc23)C1c1ccc(OCCCCCCNCCCn2ccnc2)cc1 (stereo not shown) [Compound 779]	0.04 to 0.2
O=C(Oc1ccc(F)cc1)N1CCc2c([nH]c3ccc(Cl)cc23)C1c1ccc(OCCCCCCNCCO)cc1 (stereo not shown) [Compound 772]	< 0.008
CC(=O)N1CCN(CC(O)COc2ccc(C3c4[nH]c5ccc(Cl)cc5c4CCN3C(=O)Oc3ccc(Cl)cc3)cc2)CC1 (stereo not shown) [Compound 415]	< 0.008
O=C(Oc1ccc(F)cc1)N1CCc2c([nH]c3ccc(Cl)cc23)C1c1ccc(OCCCCNCCCn2ccnc2)cc1 (stereo not shown) [Compound 741]	0.04 to 0.2
O=C(Oc1ccc(Cl)cc1)N1CCc2c([nH]c3ccc(Cl)cc23)C1c1ccc(OCCCCCCN2CCCC2)cc1 (stereo not shown) [Compound 783]	< 0.008
Cc1ccc(OC(=O)N2CCc3c([nH]c4ccc(Cl)cc34)C2c2ccc(OCC3CCCN(C)C3)cc2)cc1 (stereo not shown) [Compound 951]	0.008 to 0.04

SMILES	EC50 [µM]
O=C(Oc1ccc(Cl)cc1)N1CCc2c([nH]c3ccc(Cl)cc23)C1c1ccc(OCCCCN2CCOCC2)cc1 (stereo not shown) [Compound 702]	0.008 to 0.04
COc1ccc(OC(=O)N2CCc3c([nH]c4ccc(Cl)cc34)C2c2ccc(OCCCN(C)C)cc2)cc1 (stereo not shown) [Compound 501]	0.04 to 0.2
COCCN(CCCOc1ccc(C2c3[nH]c4ccc(Cl)cc4c3CCN2C(=O)Oc2ccc(Cl)cc2)cc1)CCOC (stereo not shown) [Compound 916]	< 0.008
CN1CCN(CCCCCCOc2ccc(C3c4[nH]c5ccc(Cl)cc5c4CCN3C(=O)Oc3ccc(Cl)cc3)cc2)CC1 (stereo not shown) [Compound 788]	0.008 to 0.04
CN1CCCC(COc2ccc(C3c4[nH]c5ccc(Cl)cc5c4CCN3C(=O)Oc3ccccc3)cc2)C1 (stereo not shown) [Compound 952]	0.008 to 0.04
CN1CCCC(COc2ccc(C3c4[nH]c5ccc(Cl)cc5c4CCN3C(=O)Oc3ccc(Cl)cc3)cc2)C1 (stereo not shown) [Compound 966]	0.008 to 0.04
O=C(Oc1ccc(Cl)cc1)Oc1ccc(C2c3[nH]c4ccc(Cl)cc4c3CCN2C(=O)Oc2ccc(Cl)cc2)cc1 (stereo not shown) [Compound 578]	0.04 to 0.2
COCCN(C)CCCOc1ccc(C2c3[nH]c4ccc(Cl)cc4c3CCN2C(=O)Oc2ccc(Cl)cc2)cc1 (stereo not shown) [Compound 908]	< 0.008
CN1CCN(CCCOc2ccc(C3c4[nH]c5ccc(Cl)cc5c4CCN3C(=O)Oc3ccc(F)cc3)cc2)CC1 (stereo not shown) [Compound 993]	< 0.008
NCC(O)COc1ccc(C2c3[nH]c4ccc(Cl)cc4c3CCN2C(=O)Oc2ccc(Cl)cc2)cc1 (stereo not shown) [Compound 846]	0.04 to 0.2
CN1CCN(CCCCCCOc2ccc(C3c4[nH]c5ccc(Cl)cc5c4CCN3C(=O)Oc3ccc(F)cc3)cc2)CC1 (stereo not shown) [Compound 778]	< 0.008
COCCN(C)CCCOc1ccc(C2c3[nH]c4ccc(Cl)cc4c3CCN2C(=O)Oc2ccc(F)cc2)cc1 (stereo not shown) [Compound 992]	0.04 to 0.2
O=C(Oc1ccc(Cl)cc1)N1CCc2c([nH]c3ccc(Cl)cc23)C1c1ccc(OCCN2CCOCC2)cc1 (stereo not shown) [Compound 331]	> 1
O=C(Oc1ccc(Cl)cc1)N1CCc2c([nH]c3ccc(Cl)cc23)C1c1ccc(OCCCN2CCOCC2)cc1 (stereo not shown) [Compound 894]	< 0.008
COc1ccc(C2c3[nH]c4ccc(Cl)cc4c3CCN2C(=O)Oc2ccc(Cl)cc2)cc1 (stereo not shown) [Compound #10]	< 0.008
O=C(Oc1ccc(Cl)cc1)N1CCc2c([nH]c3ccc(Cl)cc23)C1c1ccc(OCCCCCCNCCCn2ccnc2)cc1 (stereo not shown) [Compound 789]	0.04 to 0.2
CCN(CC)CC(O)COc1ccc(C2c3[nH]c4ccc(Cl)cc4c3CCN2C(=O)Oc2ccc(Cl)cc2)cc1 (stereo not shown) [Compound 938]	< 0.008
O=C(Oc1ccc(F)cc1)N1CCc2c([nH]c3ccc(Cl)cc23)C1c1ccc(OCC(O)CN2CCOCC2)cc1 (stereo not shown) [Compound 638]	< 0.008
O=C(Oc1ccc(F)cc1)N1CCc2c([nH]c3ccc(Cl)cc23)C1c1ccc(OCCCN2CCOCC2)cc1 (stereo not shown) [Compound 989]	< 0.008
CC(C)NCCCCCCOc1ccc(C2c3[nH]c4ccc(Cl)cc4c3CCN2C(=O)Oc2ccc(F)cc2)cc1 (stereo not shown) [Compound 774]	0.008 to 0.04
O=C(Oc1ccc(Cl)cc1)N1CCc2c([nH]c3ccc(Cl)cc23)C1c1ccc(OCCCN2CCCCC2)cc1 (stereo not shown) [Compound 433]	< 0.008
O=C(Oc1ccc(Cl)cc1)N1CCc2c([nH]c3ccc(Cl)cc23)C1c1ccc(OCCCCN2CCCCC2)cc1 (stereo not shown) [Compound 703]	0.008 to 0.04
O=C(Oc1ccc(Cl)cc1)N1CCc2c([nH]c3ccc(Cl)cc23)C1c1ccc(OCCCCCCN2CCCCC2)cc1 (stereo not shown) [Compound 787]	< 0.008
CC(C)NCCCCCCOc1ccc(C2c3[nH]c4ccc(Cl)cc4c3CCN2C(=O)Oc2ccc(Cl)cc2)cc1 (stereo not shown) [Compound 784]	< 0.008
